# In patent US6699875B2, “Cascade esters of camptothecins and methods of treating cancer using these compounds” (priority 2002, dated 2004):
# Experiments:
# [1] = Plasma level of closed lactone form of 9NC after oral administration to Phase I patients; assay type: in vivo, humans; conditions: after oral administration to Phase I clinical trial patients, on average
# [2] = system: human malignancies; assay: Clinical responses in Phase I clinical trial patients; assay type: in vivo; conditions: in humans, oral
# Excerpt: Clearly, there is a pressing need for a modification which will slow and delay the lactone ring opening upon its entrance into the blood circulation.
# [3] = system: human tumor xenografts; conditions: in mice; cited from earlier work
# [4] = Plasma level of closed lactone form of 9NC after i.s. administration; assay type: in vivo, mice
# [5] = Closed lactone form of CPT in plasma after oral administration in humans; assay type: in vivo
# [6] = Closed lactone form of CPT in plasma after intrastomach administration in mice; assay type: in vivo
# [7] = Metabolism and pharmacokinetics of camptothecin in human plasma; assay type: in vitro ADME
# [8] = sodium carboxylate salt vs closed lactone camptothecin; cited from earlier work
compound,measurement,setting,value
"CC[C@@]1(O)C(=O)OCc2c1cc1n(c2=O)Cc2cc3c([N+](=O)[O-])cccc3nc2-1 [9NC, 9-nitrocamptothecin]",share of drug present in the plasma in the closed lactone form,[1],~3%
same,complete tumor regressions,[2],2/32
same,complete tumor regressions,[3],32/32
same,potency relative to CPT against human tumor xenografts,[3],2-3 times
same,share of drug present in the plasma in the closed lactone form,[4],57%
20(S)-camptothecin [CPT],"closed lactone form, share of the area under the curve",[5],about 0.4%
same,"closed lactone form, share of the area under the curve",[6],approximately 54%
same,half-life time of the drug with lactone intact,[7],30 min
same,metabolite detected,[7],the only metabolite detected is the ring-opened sodium carboxylate salt
CC[C@@](O)(C(=O)[O-])c1cc2n(c(=O)c1CO)Cc1cc3ccccc3nc1-2.[Na+] [sodium carboxylate salt],potency relative to native camptothecin with the closed lactone ring intact,[8],10%
